From patent publication US11319299B2, “Substituted carboxamides as inhibitors of WDR5 protein-protein binding” (PROPELLON THERAPEUTICS INC., priority 2016, dated 2022)

target: WDR5 (Homo sapiens (Human), UniProt P61964); assay: Surface Plasmon Resonance (SPR) assay, KD and residence time; assay type: binding; conditions: surface plasmon resonance (SPR) assay; read-out: WDR5 binding affinity (KD)

Kd [nM]	Compound
0.499	Cc1cnc(N2CC=C(c3cc(NC(=O)c4c[nH]c(=O)cc4C(F)(F)F)c(N4C[C@@H](C)N(C)[C@@H](C)C4)cc3F)CC2)nc1 [Example 271, N-[4-fluoro-5-[1-(5-methylpyrimidin-2-yl)-3,6-dihydro-2H-pyridin-4-yl]-2-[(3R,5S)-3,4,5-trimethylpiperazin-1-yl]phenyl]-6-oxo-4-(trifluoromethyl)-1H-pyridine-3-carboxamide]
0.532	C[C@@H]1CN(c2ccc(-c3cc(NC(=O)c4c[nH]c(=O)cc4C(F)(F)F)c(N4C[C@@H](C)N(C)[C@@H](C)C4)cc3F)cn2)C[C@H](C)O1 [Example 272, N-[4-fluoro-5-[6-[(2R,6S)-2,6-dimethylmorpholin-4-yl]pyridin-3-yl]-2-[(3S,5R)-3,4,5-trimethylpiperazin-1-yl]phenyl]-6-oxo-4-(trifluoromethyl)-1H-pyridine-3-carboxamide]
1.54	C[C@@H]1CN(c2cc(F)c(C3=CCN(c4ncc(Cl)cn4)CC3)cc2NC(=O)c2c[nH]c(=O)cc2C(F)(F)F)C[C@H](C)N1C [Example 275, N-[5-[1-(5-chloropyrimidin-2-yl)-3,6-dihydro-2H-pyridin-4-yl]-4-fluoro-2-[(3R,5S)-3,4,5-trimethylpiperazin-1-yl]phenyl]-6-oxo-4-(trifluoromethyl)-1H-pyridine-3-carboxamide]
1.67	CCOC(=O)c1ccnc(N2CC=C(c3cc(NC(=O)c4c[nH]c(=O)cc4C(F)(F)F)c(N4C[C@@H](C)N(C)[C@@H](C)C4)cc3F)CC2)n1 [Example 276, ethyl 2-[4-[2-fluoro-5-[[6-oxo-4-(trifluoromethyl)-1H-pyridine-3-carbonyl]amino]-4-[(3R,5S)-3,4,5-trimethylpiperazin-1-yl]phenyl]-3,6-dihydro-2H-pyridin-1-yl]pyrimidine-4-carboxylate]
14.9	CNC1CCN(c2cc(F)c(-c3cnc(N4CCOCC4)nc3)cc2NC(=O)c2c[nH]c(=O)cc2C(F)(F)F)C1 (stereo not drawn) [Example 277, N-[4-fluoro-2-[3-(methylamino)pyrrolidin-1-yl]-5-(2-morpholin-4-ylpyrimidin-5-yl)phenyl]-6-oxo-4-(trifluoromethyl)-1H-pyridine-3-carboxamide]
3.12	C[C@@H]1CN(c2cc(F)c(-c3cnc(N4CCOCC4)nc3)cc2NC(=O)c2cc(O)cc(C(F)(F)F)c2)C[C@H](C)N1C [Example 280, N-[4-fluoro-5-(2-morpholin-4-ylpyrimidin-5-yl)-2-[(3R,5S)-3,4,5-trimethylpiperazin-1-yl]phenyl]-3-hydroxy-5-(trifluoromethyl)benzamide]
29.1	C[C@@H]1CN(c2cc(F)c(-c3cnc(N4CCOCC4)nc3)cc2NC(=O)c2cccc(O)c2)C[C@H](C)N1C [Example 281, N-[4-fluoro-5-(2-morpholin-4-ylpyrimidin-5-yl)-2-[(3R,5S)-3,4,5-trimethylpiperazin-1-yl]phenyl]-3-hydroxybenzamide]

The remaining lines, values behind:

Compound	Kd [nM]
CC(C)COC(=O)N1CC=C(c2cc(NC(=O)c3c[nH]c(=O)cc3C(F)(F)F)c(N3C[C@@H](C)N(C)[C@@H](C)C3)cc2F)CC1 [Example 254, 2-methylpropyl 4-[2-fluoro-5-[[6-oxo-4-(trifluoromethyl)-1H-pyridine-3-carbonyl]amino]-4-[(3R,5S)-3,4,5-trimethylpiperazin-1-yl]phenyl]-3,6-dihydro-2H-pyridine-1-carboxylate]	3.34
C[C@@H]1CN(c2cc(F)c(C3=CCN(C(=O)CC(C)(C)C)CC3)cc2NC(=O)c2c[nH]c(=O)cc2C(F)(F)F)C[C@H](C)N1C [Example 255, N-[5-[1-(3,3-dimethylbutanoyl)-3,6-dihydro-2H-pyridin-4-yl]-4-fluoro-2-[(3R,5S)-3,4,5-trimethylpiperazin-1-yl]phenyl]-6-oxo-4-(trifluoromethyl)-1H-pyridine-3-carboxamide]	1.98
C[C@@H]1CN(c2cc(F)c(C3CCN(C(=O)CC(C)(C)C)CC3)cc2NC(=O)c2c[nH]c(=O)cc2C(F)(F)F)C[C@H](C)N1C [Example 256, N-[5-[1-(3,3-dimethylbutanoyl)piperidin-4-yl]-4-fluoro-2-[(3R,5S)-3,4,5-trimethylpiperazin-1-yl]phenyl]-6-oxo-4-(trifluoromethyl)-1H-pyridine-3-carboxamide]	11.8
C[C@@H]1CN(c2cc(F)c(-c3ccc(F)nc3)cc2NC(=O)c2c[nH]c(=O)cc2C(F)(F)F)C[C@H](C)N1C [Example 257, N-[4-fluoro-5-(6-fluoropyridin-3-yl)-2-[(3R,5S)-3,4,5-trimethylpiperazin-1-yl]phenyl]-6-oxo-4-(trifluoromethyl)-1H-pyridine-3-carboxamide]	1.7
CN(C)C1CCN(c2cc(F)c(-c3cnc(N4CCOCC4)nc3)cc2NC(=O)c2c[nH]c(=O)cc2C(F)(F)F)CC1 [Example 258, N-[2-[4-(dimethylamino)piperidin-1-yl]-4-fluoro-5-(2-morpholin-4-ylpyrimidin-5-yl)phenyl]-6-oxo-4-(trifluoromethyl)-1H-pyridine-3-carboxamide]	66.1
C[C@@H]1CN(c2cc(F)c(-c3ccc(N4CCCC4)nc3)cc2NC(=O)c2c[nH]c(=O)cc2C(F)(F)F)C[C@H](C)N1C [Example 261, N-[4-fluoro-5-(6-pyrrolidin-1-ylpyridin-3-yl)-2-[(3R,5S)-3,4,5-trimethylpiperazin-1-yl]phenyl]-6-oxo-4-(trifluoromethyl)-1H-pyridine-3-carboxamide]	1.64
COc1cc(Cl)cc(C(=O)Nc2cc(-c3cnc(N4CCOCC4)nc3)c(F)cc2N2C[C@@H](C)N(C)[C@@H](C)C2)c1 [Example 265, 3-chloro-N-[4-fluoro-5-(2-morpholin-4-ylpyrimidin-5-yl)-2-[(3R,5S)-3,4,5-trimethylpiperazin-1-yl]phenyl]-5-methoxybenzamide]	28.3
C[C@@H]1CN(c2cc(F)c(-c3cnc(N4CCOCC4)nc3)cc2NC(=O)c2ccc(F)c(Cl)c2F)C[C@H](C)N1C [Example 266, 3-chloro-2,4-difluoro-N-[4-fluoro-5-(2-morpholin-4-ylpyrimidin-5-yl)-2-[(3R,5S)-3,4,5-trimethylpiperazin-1-yl]phenyl]benzamide]	13.7
C[C@@H]1CN(c2cc(F)c(C3=CCN(C)CC3)cc2NC(=O)c2c[nH]c(=O)cc2C(F)(F)F)C[C@H](C)N1C [Example 267, N-[4-fluoro-5-(1-methyl-3,6-dihydro-2H-pyridin-4-yl)-2-[(3R,5S)-3,4,5-trimethylpiperazin-1-yl]phenyl]-6-oxo-4-(trifluoromethyl)-1H-pyridine-3-carboxamide]	10.7
Cc1cc(C#N)ncc1-c1cc(NC(=O)c2c[nH]c(=O)cc2C(F)(F)F)c(N2C[C@@H](C)N(C)[C@@H](C)C2)cc1F [Example 269, N-[5-(6-cyano-4-methylpyridin-3-yl)-4-fluoro-2-[(3R,5S)-3,4,5-trimethylpiperazin-1-yl]phenyl]-6-oxo-4-(trifluoromethyl)-1H-pyridine-3-carboxamide]	8.74
C[C@@H]1CN(c2cc(F)c(C3=CCN(c4ccccn4)CC3)cc2NC(=O)c2c[nH]c(=O)cc2C(F)(F)F)C[C@H](C)N1C [Example 270, N-[4-fluoro-5-(1-pyridin-2-yl-3,6-dihydro-2H-pyridin-4-yl)-2-[(3R,5S)-3,4,5-trimethylpiperazin-1-yl]phenyl]-6-oxo-4-(trifluoromethyl)-1H-pyridine-3-carboxamide]	0.938
